Experimental data published in US20170238571A1, “A SYNERGISTIC COMPOSITION COMPRISING A MIXTURE OF BACTERIA OF THE GENERA LACTOBACILLUS AND PROPIONOBACTERIUM PARTICULARLY USEFUL TO REDUCE OR ELIMINATE PATHOGEN CONTAMINATION IN SOYBEN MEAL AND ITS DERIVATIVES; METHODS AND USES THEREOF” (Molinos Río de la Plata S.A., priority 2014, published 2017).

What was measured:
[1] = test system: Aspergillus niger ATCC 16404; experiment: Protection against fungi: A. niger in premixed soybean meal; assay type: cell-based; conditions: 25° C. - 12% DBM; for Average (n = 3): A. niger count; for LOG10 (CFU/g): A. niger
Method: For the determination of fungal CFU, 20 grams of soybean meal were added to 180 mL of sterile tap water with Tween 80, which was vigorously stirred. Serial dilutions of the sample were carried out in order to perform recounting on the appropriate plates, in a Czapek-Dox agar medium.

[2] = test system: Salmonella; experiment: Residual effect: contamination and recontamination with Salmonella after treatment of soybean meal; assay type: cell-based; conditions: 25° C. - 12% DBM; for Average (n = 3): Salmonella count; for LOG10 (CFU/g): Salmonella
Method: In order to assess the effectiveness of the mix of the invention in the matrix of interest, an appropriate working protocol was prepared. Initially, 500 g of soybean meal were infected with 50 mL of Salmonella solution whose composition was: 10^6 CFUS. typhimurium/mL, 10^6 CFUS. enteritidis /mLand 10^6 CFUS. heidelberg /mL in equal amounts. […] Daily determinations of Salmonella colony forming units were performed on this contaminated meal. To this end, 40.5 g of BPW to 4.5 g of the resulting meal were added and vigorously stirred, and then 100μL of this solution, were plated onto Salmonella-Shigella agar (SS Agar). When microorganisms were used in the protecting mixes, concentrations were carefully balanced, and the amount of bacteria added was always the same.
For this reason it was decided to study the response of meals protected with different solutions, by contaminating them at different times after protection. Given the complexity of the logistics of meal products, they were tested at two different times: initial contamination and recontamination on the first week after treatment; and, contamination on the fourth week with subsequent recontamination on the fifth week after treatment. In all cases, itl was contaminated and recontaminated with Salmonella solutions whose concentration was approximately 10^6 CFU/mL (as previously described).

[3] = day 8, after RECONTAMINATION (first week)
[4] = day 9, after RECONTAMINATION (first week)
[5] = day 11, after RECONTAMINATION (first week)
[6] = day 12, after RECONTAMINATION (first week)
[7] = day 13, after RECONTAMINATION (first week)
[8] = day 14, after RECONTAMINATION (first week)
[9] = day 15, after RECONTAMINATION (first week)
[10] = day 37, contamination on the fourth week after treatment
[11] = day 38, after RECONTAMINATION (fifth week)
[12] = day 39, after RECONTAMINATION (fifth week)
[13] = day 41, after RECONTAMINATION (fifth week)
[14] = day 42, after RECONTAMINATION (fifth week)
[15] = day 44, after RECONTAMINATION (fifth week)

Structure (SMILES): CCC(=O)O [Propionic Acid]
- Average (n = 3) ([1]; 0 days): 199.76
- Average (n = 3) ([1]; 1 day): 152
- Average (n = 3) ([1]; 2 days): 121.33
- Average (n = 3) ([1]; 3 days): 91.67
- Average (n = 3) ([1]; 4 days): 78
- Average (n = 3) ([1]; 5 days): 57
- Average (n = 3) ([1]; 6 days): 38
- LOG10 (CFU/g) ([1]; 0 days): 3.65 LOG10 (CFU/g)
- LOG10 (CFU/g) ([1]; 1 day): 3.53 LOG10 (CFU/g)
- LOG10 (CFU/g) ([1]; 2 days): 3.43 LOG10 (CFU/g)
- LOG10 (CFU/g) ([1]; 3 days): 3.31 LOG10 (CFU/g)
- LOG10 (CFU/g) ([1]; 4 days): 3.24 LOG10 (CFU/g)
- LOG10 (CFU/g) ([1]; 5 days): 3.10 LOG10 (CFU/g)
- LOG10 (CFU/g) ([1]; 6 days): 2.93 LOG10 (CFU/g)
- Average (n = 3) ([2]; day 2, initial contamination): 130
- Average (n = 3) ([2]; day 3, initial contamination): 100.3
- Average (n = 3) ([2]; day 4, initial contamination): 90.5
- Average (n = 3) ([2]; day 5, initial contamination): 77
- Average (n = 3) ([2]; day 6, initial contamination): 58
- Average (n = 3) ([2]; day 7, initial contamination): 32
- Average (n = 3) [2, 3]: 215
- Average (n = 3) [2, 4]: 189.33
- Average (n = 3) ([2]; day 10, after RECONTAMINATION (first week)): 144.33
- Average (n = 3) [2, 5]: 109
- Average (n = 3) [2, 6]: 96.67
- Average (n = 3) [2, 7]: 70.67
- Average (n = 3) [2, 8]: 48.67
- Average (n = 3) [2, 9]: 40
- Average (n = 3) ([2]; day 32, contamination on the fourth week after treatment): 130
- Average (n = 3) ([2]; day 33, contamination on the fourth week after treatment): 120.3
- Average (n = 3) ([2]; day 34, contamination on the fourth week after treatment): 90.5
- Average (n = 3) ([2]; day 35, contamination on the fourth week after treatment): 77
- Average (n = 3) ([2]; day 36, contamination on the fourth week after treatment): 58
- Average (n = 3) [2, 10]: 39
- Average (n = 3) [2, 11]: 247
- Average (n = 3) [2, 12]: 189
- Average (n = 3) ([2]; day 40, after RECONTAMINATION (fifth week)): 174.34
- Average (n = 3) [2, 13]: 156.34
- Average (n = 3) [2, 14]: 136.34
- Average (n = 3) ([2]; day 43, after RECONTAMINATION (fifth week)): 111.67
- Average (n = 3) [2, 15]: 88.34
- Average (n = 3) ([2]; day 45, after RECONTAMINATION (fifth week)): 77
- LOG10 (CFU/g) [2, 3]: 3.68 LOG10 (CFU/g)
- LOG10 (CFU/g) [2, 4]: 3.62 LOG10 (CFU/g)
- LOG10 (CFU/g) [2, 5]: 3.38 LOG10 (CFU/g)
- LOG10 (CFU/g) [2, 6]: 3.33 LOG10 (CFU/g)
- LOG10 (CFU/g) [2, 7]: 3.20 LOG10 (CFU/g)
- LOG10 (CFU/g) [2, 8]: 3.03 LOG10 (CFU/g)
- LOG10 (CFU/g) [2, 9]: 2.95 LOG10 (CFU/g)
- LOG10 (CFU/g) [2, 10]: 2.94 LOG10 (CFU/g)
- LOG10 (CFU/g) [2, 11]: 3.74 LOG10 (CFU/g)
- LOG10 (CFU/g) [2, 12]: 3.62 LOG10 (CFU/g)
- LOG10 (CFU/g) [2, 13]: 3.54 LOG10 (CFU/g)
- LOG10 (CFU/g) [2, 14]: 3.48 LOG10 (CFU/g)
- LOG10 (CFU/g) [2, 15]: 3.29 LOG10 (CFU/g)
